Assay results from patent US9781930B2, “3′-substituted-abscisic acid derivatives” (Valent BioSciences Corporation, priority 2014, dated 2017).

System: Arabidopsis thaliana seed
Assay: Seed germination inhibition assay for testing Examples 1-28 and 47-50
Assay type: in vivo
Set-up: key to Arabidopsis seed germination inhibition potency: + + + +: The other derivatives were scored by potency relative to S-ABA.; (S)-ABA potency = + + +.; + +: The other derivatives were scored by potency relative to S-ABA.; ++: The other derivatives were scored by potency relative to S-ABA.; +: The other derivatives were scored by potency relative to S-ABA.; −− = no effect
Conditions: for Arabidopsis seed germination inhibition potency: 0.01-10.0 ppm in 96-well plates, scored on day 7, relative to (S)-ABA; for germination inhibition potency compared to (S)-ABA (in words): Arabidopsis seed germination
Protocol: Seed Germination Inhibition Assay for Testing Examples 1-28 and 47-50 To determine the germination inhibition potency of the (S)-ABA derivatives, germination assays were performed with the model plant Arabidopsis thaliana. Arabidopsis seed was sterilized by shaking for five minutes in 200-proof ethanol, and followed by shaking for five minutes in a 10% bleach solution. The seeds were then washed five times in sterile, distilled, de-ionized water and suspended in 0.1% phytoagar. The tubes containing the seeds were wrapped in aluminum foil and stratified at 4° C. for two days. All compounds were tested at eight concentrations of 0 (DMSO control), 0.01, 0.03, 0.1, 0.3, 1.0, 3.0, and 10.0 ppm in 96-well plates. Each plate contained eight replicates of each concentration of the test compound and eight replicates of (S)-ABA at 0.1 ppm as the positive control. As an additional set of controls, each run of the assay also contained one plate dosed with (S)-ABA covering a range of concentrations up to 10 ppm. For each compound, 10× stock solutions corresponding to each of the tested concentrations were prepared in distilled and de-ionized water containing 5% DMSO. The stock test solution (10 μL) was added to each well according to the scheme described above, and 90 μL of ½× Murashige and Skoog media containing 1.2% Bactoagar was then added to each well (final DMSO concentration was 0.5%). When the media solidified, ten to fifteen sterile stratified Arabidopsis seeds were distributed into each well using a repeat pipettor. The plates were sealed with surgical tape and placed in a growth chamber running diurnal cycles of 12 hours of light at 24° C. and 12 hours of darkness at 19° C. The plates were scanned on days 3 through 7, and scored on day 7. The 3′-substituted-(S)-ABA derivatives were scored on ability to inhibit germination relative to the potency of (S)-ABA. The results are summarized below in “Table 1: Arabidopsis seed germination inhibition activity of (S)-ABA derivatives.”

Row | Compound | Arabidopsis seed germination inhibition potency | germination inhibition potency compared to (S)-ABA (in words)
1 | CCC1=C(C)[C@](O)(/C=C/C(C)=C\C(=O)OC)C(C)(C)CC1=O [Example 1, (2Z,4E)-methyl 5-((S)-3-ethyl-1-hydroxy-2,6,6-trimethyl-4-oxocyclohex-2-en-1-yl)-3-methylpenta-2,4-dienoate] | + + + | just as effective as (S)-ABA
2 | CCC1=C(C)[C@](O)(/C=C/C(C)=C\C(=O)O)C(C)(C)CC1=O [Example 2, (2Z,4E)-5-((S)-3-ethyl-1-hydroxy-2,6,6-trimethyl-4-oxocyclohex-2-en-1-yl)-3-methylpenta-2,4-dienoic acid] | + + + | just as effective as (S)-ABA
3 | CCCC1=C(C)[C@](O)(/C=C/C(C)=C\C(=O)O)C(C)(C)CC1=O [Example 3, (2Z,4E)-5-((S)-1-hydroxy-2,6,6-trimethyl-4-oxo-3-propylcyclohex-2-en-1-yl)-3-methylpenta-2,4-dienoic acid] | + + | 
4 | C=CCC1=C(C)[C@](O)(/C=C/C(C)=C\C(=O)O)C(C)(C)CC1=O [Example 4, (2Z,4E)-5-((S)-3-allyl-1-hydroxy-2,6,6-trimethyl-4-oxocyclohex-2-en-1-yl)-3-methylpenta-2,4-dienoic acid] | + + + | just as effective as (S)-ABA
5 | C#CCC1=C(C)[C@](O)(/C=C/C(C)=C\C(=O)O)C(C)(C)CC1=O [Example 5, (2Z,4E)-5-((S)-1-hydroxy-2,6,6-trimethyl-4-oxo-3-(prop-2-yn-1-yl)cyclohex-2-en-1-yl)-3-methylpenta-2,4-dienoic acid] | + + + + | more potent than (S)-ABA
6 | CCCCC1=C(C)[C@](O)(/C=C/C(C)=C\C(=O)O)C(C)(C)CC1=O [Example 6, (2Z,4E)-5-((S)-3-butyl-1-hydroxy-2,6,6-trimethyl-4-oxocyclohex-2-en-1-yl)-3-methylpenta-2,4-dienoic acid] | + | 
7 | CC1=C(CCCCO)C(=O)CC(C)(C)[C@@]1(O)/C=C/C(C)=C\C(=O)O [Example 7, (2Z,4E)-5-((S)-1-hydroxy-3-(4-hydroxybutyl)-2,6,6-trimethyl-4-oxocyclohex-2-en-1-yl)-3-methylpenta-2,4-dienoic acid] | −− | 
8 | CCCCCC1=C(C)[C@](O)(/C=C/C(C)=C\C(=O)O)C(C)(C)CC1=O [Example 8, (2Z,4E)-5-((S)-1-hydroxy-2,6,6-trimethyl-4-oxo-3-pentylcyclohex-2-en-1-yl)-3-methylpenta-2,4-dienoic acid] | −− | 
9 | CC1=C(CC(=O)OC(C)(C)C)C(=O)CC(C)(C)[C@@]1(O)/C=C/C(C)=C\C(=O)O [Example 9, (2Z,4E)-5-((S)-3-(2-(tert-butoxy)-2-oxoethyl)-1-hydroxy-2,6,6-trimethyl-4-oxocyclohex-2-en-1-yl)-3-methylpenta-2,4-dienoic acid] | −− | 
10 | CC1=C(CC(=O)O)C(=O)CC(C)(C)[C@@]1(O)/C=C/C(C)=C\C(=O)O [Example 10, (2Z,4E)-5-((S)-3-(carboxymethyl)-1-hydroxy-2,6,6-trimethyl-4-oxocyclohex-2-en-1-yl)-3-methylpenta-2,4-dienoic acid] | −− | 
11 | CC1=C(CC#N)C(=O)CC(C)(C)[C@@]1(O)/C=C/C(C)=C\C(=O)O [Example 11, (2Z,4E)-5-((S)-3-(cyanomethyl)-1-hydroxy-2,6,6-trimethyl-4-oxocyclohex-2-en-1-yl)-3-methylpenta-2,4-dienoic acid] | ++ | 
12 | CC1=C(CC(=O)N(C)C)C(=O)CC(C)(C)[C@@]1(O)/C=C/C(C)=C\C(=O)O [Example 12, (2Z,4E)-5-((S)-3-(2-(dimethylamino)-2-oxoethyl)-1-hydroxy-2,6,6-trimethyl-4-oxocyclohex-2-en-1-yl)-3-methylpenta-2,4-dienoic acid] | −− | 
13 | CC1=C(Cc2ccccc2)C(=O)CC(C)(C)[C@@]1(O)/C=C/C(C)=C\C(=O)O [Example 13, (2Z,4E)-5-((S)-3-benzyl-1-hydroxy-2,6,6-trimethyl-4-oxocyclohex-2-en-1-yl)-3-methylpenta-2,4-dienoic acid] | −− | 
14 | CC1=C(Cc2ccc3ccccc3c2)C(=O)CC(C)(C)[C@@]1(O)/C=C/C(C)=C\C(=O)O [Example 14, (2Z,4E)-5-((S)-1-hydroxy-2,6,6-trimethyl-3-(naphthalen-2-ylmethyl)-4-oxocyclohex-2-en-1-yl)-3-methylpenta-2,4-dienoic acid] | −− | 
15 | CC1=C(Cc2cccc3ccccc23)C(=O)CC(C)(C)[C@@]1(O)/C=C/C(C)=C\C(=O)O [Example 15, (2Z,4E)-5-((S)-1-hydroxy-2,6,6-trimethyl-3-(naphthalen-1-ylmethyl)-4-oxocyclohex-2-en-1-yl)-3-methylpenta-2,4-dienoic acid] | −− | 
16 | CC1=C(Cc2ccccc2C)C(=O)CC(C)(C)[C@@]1(O)/C=C/C(C)=C\C(=O)O [Example 16, (2Z,4E)-5-((S)-1-hydroxy-2,6,6-trimethyl-3-(2-methylbenzyl)-4-oxocyclohex-2-en-1-yl)-3-methylpenta-2,4-dienoic acid] | −− | 
17 | CC1=C(Cc2cccc(C)c2)C(=O)CC(C)(C)[C@@]1(O)/C=C/C(C)=C\C(=O)O [Example 17, (2Z,4E)-5-((S)-1-hydroxy-2,6,6-trimethyl-3-(3-methylbenzyl)-4-oxocyclohex-2-en-1-yl)-3-methylpenta-2,4-dienoic acid] | −− | 
18 | CC1=C(Cc2ccc(C)cc2)C(=O)CC(C)(C)[C@@]1(O)/C=C/C(C)=C\C(=O)O [Example 18, (2Z,4E)-5-((S)-1-hydroxy-2,6,6-trimethyl-3-(4-methylbenzyl)-4-oxocyclohex-2-en-1-yl)-3-methylpenta-2,4-dienoic acid] | −− | 
19 | CC1=C(Cc2ccccc2F)C(=O)CC(C)(C)[C@@]1(O)/C=C/C(C)=C\C(=O)O [Example 19, (2Z,4E)-5-((S)-3-(2-fluorobenzyl)-1-hydroxy-2,6,6-trimethyl-4-oxocyclohex-2-en-1-yl)-3-methylpenta-2,4-dienoic acid] | −− | 
20 | CC1=C(Cc2cccc(F)c2)C(=O)CC(C)(C)[C@@]1(O)/C=C/C(C)=C\C(=O)O [Example 20, (2Z,4E)-5-((S)-3-(3-fluorobenzyl)-1-hydroxy-2,6,6-trimethyl-4-oxocyclohex-2-en-1-yl)-3-methylpenta-2,4-dienoic acid] | −− | 
21 | CC1=C(Cc2ccc(F)cc2)C(=O)CC(C)(C)[C@@]1(O)/C=C/C(C)=C\C(=O)O [Example 21, (2Z,4E)-5-((S)-3-(4-fluorobenzyl)-1-hydroxy-2,6,6-trimethyl-4-oxocyclohex-2-en-1-yl)-3-methylpenta-2,4-dienoic acid] | −− | 
22 | CC1=C(Cc2ccc(F)c(F)c2)C(=O)CC(C)(C)[C@@]1(O)/C=C/C(C)=C\C(=O)O [Example 22, (2Z,4E)-5-((S)-3-(3,4-difluorobenzyl)-1-hydroxy-2,6,6-trimethyl-4-oxocyclohex-2-en-1-yl)-3-methylpenta-2,4-dienoic acid] | −− | 
23 | CC1=C(Cc2cc(F)cc(F)c2)C(=O)CC(C)(C)[C@@]1(O)/C=C/C(C)=C\C(=O)O [Example 23, (2Z,4E)-5-((S)-3-(3,5-difluorobenzyl)-1-hydroxy-2,6,6-trimethyl-4-oxocyclohex-2-en-1-yl)-3-methylpenta-2,4-dienoic acid] | −− | 
24 | CC1=C(Cc2ccccc2Cl)C(=O)CC(C)(C)[C@@]1(O)/C=C/C(C)=C\C(=O)O [Example 24, (2Z,4E)-5-((S)-3-(2-chlorobenzyl)-1-hydroxy-2,6,6-trimethyl-4-oxocyclohex-2-en-1-yl)-3-methylpenta-2,4-dienoic acid] | −− | 
25 | CC1=C(Cc2ccc(Cl)cc2)C(=O)CC(C)(C)[C@@]1(O)/C=C/C(C)=C\C(=O)O [Example 25, (2Z,4E)-5-((S)-3-(4-chlorobenzyl)-1-hydroxy-2,6,6-trimethyl-4-oxocyclohex-2-en-1-yl)-3-methylpenta-2,4-dienoic acid] | −− | 
26 | COc1cccc(CC2=C(C)[C@](O)(/C=C/C(C)=C\C(=O)O)C(C)(C)CC2=O)c1 [Example 26, (2Z,4E)-5-((S)-3-(3-methoxybenzyl)-1-hydroxy-2,6,6-trimethyl-4-oxocyclohex-2-en-1-yl)-3-methylpenta-2,4-dienoic acid] | −− | 
